From patent US4639437A, “Kit or device and method for administering gangliosides and derivatives thereof by inhalation and pharmaceutical compositions suitable therefor” (Fidia, S.p.A., priority 1984, dated 1987)
Like-named read-outs stand apart in the source and are kept apart here.

Assays:
[1] = design: species or system male New Zealand rabbits; details: rabbit, in vivo, 0.25 mg/kg, 300 min
Description: (§1) Two animal species were used, i.e., rats and rabbits.
(§2) Monosialotetrahexosylganglioside GM1 labeled on the sphingosine moiety according to the method of Tettamanti et al. (in "Gangliosides in Neurological and Neuromuscular Function, Development and Repair" Eds. M. M. Rapport, A. Gorio, Raven Press. (N.Y.) 1981, p. 225-240) was used as a representative ganglioside molecule.
(§3) The ganglioside mixture used was similar to the natural mixture that is obtained by extraction and purification from bovine cerebral cortex. The mixture was made up by compounding the single ganglioside fractions in the following percent proportions:
(§4) The monosialotetrahexosylganglioside GM1 contained a ^3 H-label on sphingosine as specified under item (a) as a tracer for the mixture.
(§5) Labeled inner ester derivative of monosialoganglioside was obtained from monosialoganglioside labeled on the sphingosine moiety according to the method cited under item (a). The inner esterification procedure according to the method described in applicant's co-pending U.S. application Ser. No. 290,106, filed on Aug. 4, 1981, was used for this labeled ganglioside to obtain the labeled inner ester derivative. […]
(§6) After treatment the animals were housed in metabolic cages. […] The total radioactivity of the samples was counted by means of a Tricarb scintillator (Packard). […]

[2] = design: species or system male New Zealand rabbits; details: rabbit, in vivo, 0.25 mg/kg, 300 min; remark: listed apart in the source
Description: as §1, §2, §3, §4, §5, §6

[3] = design: species or system male Sprague Dawley rats; details: rat, in vivo, 0.25 mg/kg, 300 min
Description: as §1, §2, §3, §4, §5, §6

[4] = design: species or system male Sprague Dawley rats; details: rat, in vivo, 0.25 mg/kg, 300 min; remark: listed apart in the source
Description: as §1, §2, §3, §4, §5, §6

[5] = design: species or system male Sprague Dawley rats; details: rat, in vivo, 0.25 mg/kg, 300 min; remark: listed apart in the source
Description: as §1, §2, §3, §4
as §5, with “Aug.” for “Aug. 4, 1981, was used for this labeled ganglioside to obtain the labeled inner ester derivative.”
After treatment the animals were housed in metabolic cages. […] The total radioactivity of the samples was counted by means of a Tricarb scintillator (Packard).
(§7) However, increased pulmonary absorption of the compounds after nebulization of the aqueous solutions was recorded (See Table 2).

[6] = design: species or system male New Zealand rabbits; details: rabbit, in vivo, 0.25 mg/kg, 300 min; remark: listed apart in the source
Description: as §1, §2, §3, §4
as §5, with “Aug.” for “Aug. 4, 1981, was used for this labeled ganglioside to obtain the labeled inner ester derivative.”
as §6, §7

Compound: Monosialotetrahexosylganglioside GM1 [Monosialoganglioside]
- Bioavailability (Intramuscular route = 100) [1]: 12%
- Bioavailability (Intramuscular route = 100) [2]: 87
- Bioavailability (Intramuscular route = 100) [3]: 10.5%
- Bioavailability (Intramuscular route = 100) [4]: 85
- Bioavailability (Intramuscular route = 100) [5]: 34%
- Bioavailability (Intramuscular route = 100) [6]: 32%

Compound: CCCCCCCCCCCCC/C=C/[C@@H](O)[C@H](CO[C@@H]1O[C@H](CO)[C@@H](O[C@@H]2O[C@H](CO)[C@H](O[C@@H]3O[C@H](CO)[C@H](O)[C@H](O[C@@H]4O[C@H](CO)[C@H](O)[C@H](O)[C@H]4O)[C@H]3NC(C)=O)[C@@H]3O[C@@]4(C[C@H](O)[C@@H](NC(C)=O)[C@H]([C@H](O)[C@H](O)CO)O4)C(=O)O[C@@H]23)[C@H](O)[C@H]1O)NC(=O)CCCCCCCCCCCCCCCCC [Monosialoganglioside inner ester]
- Bioavailability (Intramuscular route = 100) [1]: 11.5%
- Bioavailability (Intramuscular route = 100) [2]: 85
- Bioavailability (Intramuscular route = 100) [3]: 12%
- Bioavailability (Intramuscular route = 100) [4]: 80
- Bioavailability (Intramuscular route = 100) [5]: 35%
- Bioavailability (Intramuscular route = 100) [6]: 33.5%
